Assay results from ChEMBL document CHEMBL4346695, “Thiophenol-formaldehyde triazole causes apoptosis induction in ovary cancer cells and prevents tumor growth formation in mice model” (2019).
Activity calls are given as the source filed them.

What was measured:
Caov-4 = test: Growth inhibition of human Caov4 cells incubated for 48 hrs by MTT assay; format: functional, cell-based
Caov-3 cell line = test: Growth inhibition of human Caov3 cells incubated for 48 hrs by MTT assay; format: functional, cell-based
Homo sapiens = organism: Homo sapiens; test: Growth inhibition of human ES2 cells incubated for 48 hrs by MTT assay; format: functional

Measured: growth inhibition (GI)

FC(F)(F)c1ccc(-n2cc(COCc3ccccc3S)nn2)cc1
active: all assays above

Sc1ccccc1COCc1cn(-c2c(Cl)cc(Cl)cc2Cl)nn1
active: all assays above

FC(F)(F)c1ccccc1-n1cc(COCc2ccccc2S)nn1
active: all assays above

Fc1ccc(-n2cc(COCc3ccccc3S)nn2)c(F)c1
active: all assays above
